# Laboratory results: US12534496B2, “Polymorphic forms of Cyclo (-His-Pro) and methods of use to treat kidney disease” (NovMetaPharma Co., Ltd., priority 2018, dated 2026)
# Several values for one entry are separate records, joined by “and”; a condition that tells them apart may be missing. Equal values may be shown once. Entries after “also recorded” stand apart in the source; their conditions may differ.
# Experiments:
# Assay type in all cases: physicochemical
# [1] = Dynamic vapor sorption (DVS) at 25 °C with post-DVS XRPD
# Procedure: DVS was carried out by placing an approximately 10-20 mg sample into a mesh vapour sorption balance pan and loaded into a DVS Intrinsic Dynamic Vapour Sorption Balance by Surface Measurement Systems. The sample was subjected to a ramping profile from 40 to 90% relative humidity (RH) at 10% increments, maintaining the sample at each step until a stable weight had been achieved (dm/dt 0.004%, minimum step length 30 minutes, maximum step length 500 minutes) at 25° C. After completion of the sorption cycle, the sample was dried using the same procedure to 0% RH and then a second sorption cycle back to 40% RH. Two cycles were performed. The weight change during the sorption/desorption cycles were plotted, allowing for the hygroscopic nature of the sample to be determined. XRPD analysis was then carried out on any solid retained.
# Approximately, 10-20 mg of sample was placed into a mesh vapor sorption balance pan and loaded into a DVS Intrinsic dynamic vapor sorption balance by Surface Measurement Systems. The sample was subjected to a ramping profile from 40-90% relative humidity (RH) at 10% increments, maintaining the sample at each step until a stable weight had been achieved (dm/dt 0.004%, minimum step length 30 minutes, maximum step length 500 minutes) at 25° C. After completion of the sorption cycle, the sample was dried using the same procedure to 0% RH and then a second sorption cycle back to 40% RH. Two cycles were performed. The weight change during the sorption/desorption cycles were plotted, allowing for the hygroscopic nature of the sample to be determined. XRPD analysis was then carried out on any solid retained.
# [2] = pKa analysis via potentiometric acid/base titration
# Procedure: pKa analysis was carried out on Pattern 1 via a potentiometric technique which is acid/base titration to determine the pKa point.
# [3] = GMP stability study of CHP anhydrate and CHP hydrate under accelerated conditions (total impurities); details: for Growth of total Impurities: 40 °C/75% RH
# Procedure: CHP anhydrate (Pattern 1) and hydrate (Pattern 2) compounds were manufactured under GMP conditions. A stability study for the CHP anhydrate compound was conducted under ccelerated conditions (40±5° C./75±5% RH) for six months and room temperature conditions (25±5° C./60±5% RH) for 12 months. A further stability study for the CHP hydrate compound was conducted under accelerated conditions (40±5° C./75±5% RH) for 6 months (Table 18).
# [4] = pH solubility assessment in buffers at 37 °C; details: 100 mg solid
# Procedure: CHP patterns 1 and 2 were prepared for pH solubility assessment as follows: • 100 mg of CHP pattern 1 and pattern 2 were each weighed out into 4, 5 mL screw top glass vials; • 100 μL of a selected buffer, pre-heated to 37° C., was added to each vial; • Samples were heated to 37° C. in an incubator shaker for ca. 10 minutes after each volume of buffer and checked for sample dissolution.
# [5] = Approximate solubility of CHP Pattern 1 by solvent addition technique
# Procedure: The approximate solubility of CHP in 37 selected solvent systems (Table 13) was estimated by solvent addition technique. The following procedure was used: • Approximately 20 mg of CHP Pattern 1 was weighed out into each of 37vials. • Each solvent/solvent mixture was added to the appropriate vial in 5 volume aliquots (100 μL) until dissolution was observed or a maximum of 2 mL solvent was added. • In between additions, the sample was heated to 40° C. to check for dissolution at elevated temperature. • If 2 mL of solvent was added without dissolution of the material, solubility was calculated to be below 10 mg/mL. • After solvent addition, all 37 vials were placed in a fridge to crash cool between 2-8° C. for ca. 18 hours. • Any solids present were isolated by centrifuge filtration and analyzed by XRPD (where material amount allowed). • Where no solids were produced, vials were uncapped and left to evaporate at ambient temperature. • Any solids present were analyzed by XRPD (where material amount allowed).
# [6] = Solution state chemical stability in water/acetone and EtOH/water/MtBE (HPLC purity); details: 10 mg/ml; for Observation: up to 20 h
# Procedure: Solution state chemical stability of the compound was studied in different solvent systems at different temperatures (Table 4). The solution was held at 50° C. and 80° C., and purity of the solution was tracked. The compound was generally stable for at least 20 hours.
smiles,measurement,setting,value
"O=C1N[C@@H](Cc2cnc[nH]2)C(=O)N2CCC[C@@H]12 [Pattern 1, Cyclo (-His-Pro)]",Post-DVS XRPD form,[1]; after DVS cycles at 25 °C,"a new form, assigned as pattern 2; also recorded: re-crystallized to pattern 2"
same,DVS maximum uptake after conversion to Pattern 2,"[1]; between 0 and 90% RH, 25 °C",0.8 wt %
same,DVS weight gain (change in mass),"[1]; from 60% RH to 90% RH, 25 °C",6.3%
same,pKa,[2],6.4 and 6.38
same,Growth of total Impurities,[3]; 0M,0%
same,Growth of total Impurities,[3]; 1M,0%
same,Growth of total Impurities,"[3]; 3M, listed as CHP anhydrate (pattern 1)",0.27%
same,Growth of total Impurities,"[3]; 6M, listed as CHP anhydrate (pattern 1)",0.53%
same,Water content reached by moisture absorption,[3]; during the stability study,7%
same,μL for Dissolution at 37° C.,[4]; buffer pH 1,300 µL
same,μL for Dissolution at 37° C.,[4]; buffer pH 4,300 µL
same,μL for Dissolution at 37° C.,[4]; buffer pH 6.8,300 µL
same,μL for Dissolution at 37° C.,[4]; buffer pH 7.2,300 µL
same,Approximate Solubility,[5]; THF,≤ 10000 µg/mL
same,Approximate Solubility,[5]; acetone,≤ 10000 µg/mL
same,Approximate Solubility,[5]; acetonitrile,≤ 10000 µg/mL
same,Approximate Solubility,[5]; water,≥ 200000 µg/mL
same,Approximate Solubility,[5]; water:acetone [90:10],≥ 200000 µg/mL
same,Purity (a %),"[6]; (EtOH:H2O = 9:1):MTBE = 1:3 (v/v), 50 °C, 0 h",99.82%
same,Purity (a %),"[6]; (EtOH:H2O = 9:1):MTBE = 1:3 (v/v), 50 °C, 2 h",99.77%
same,Purity (a %),"[6]; (EtOH:H2O = 9:1):MTBE = 1:3 (v/v), 50 °C, 20 h",99.82%
same,Observation,"[6]; (EtOH:H2O = 9:1):MTBE = 1:3 (v/v), 50 °C",No change
same,Purity (a %),"[6]; EtOH:H2O = 9:1 (v/v), 50 °C, 0 h",99.76%
same,Purity (a %),"[6]; EtOH:H2O = 9:1 (v/v), 50 °C, 2 h",99.86%
same,Purity (a %),"[6]; EtOH:H2O = 9:1 (v/v), 50 °C, 20 h",99.69%
same,Observation,"[6]; EtOH:H2O = 9:1 (v/v), 50 °C",No change
same,Purity (a %),"[6]; H2O, 80 °C, 0 h",99.82%
same,Purity (a %),"[6]; H2O, 80 °C, 2 h",99.77%
same,Purity (a %),"[6]; H2O, 80 °C, 20 h",99.82%
same,Observation,"[6]; H2O, 80 °C",No change
same,Purity (a %),"[6]; H2O:Acetone = 0.5:9.5 (v/v), 50 °C, 0 h",99.77%
same,Purity (a %),"[6]; H2O:Acetone = 0.5:9.5 (v/v), 50 °C, 2 h",99.72%
same,Purity (a %),"[6]; H2O:Acetone = 0.5:9.5 (v/v), 50 °C, 20 h",99.73%
same,Observation,"[6]; H2O:Acetone = 0.5:9.5 (v/v), 50 °C",No change
